Tests used:
[1] = Percentage recovery in rat hepatic microsomal fractions under oxidative conditions after 1 hour; assay type: ADME; conditions: liver microsomes, read-out: Recovery
Macaca mulatta = species: Macaca mulatta; experiment: Percentage recovery in rhesus monkey hepatic microsomal fractions under oxidative conditions after 1 hour; conditions: liver microsomes

Question: With `CS(=O)(=O)c1ccc(-c2c(-c3ccccc3)nc3sccn23)cc1` as the molecule, how does the remaining at 1 h [1] read?
Answer: 75%

Question: And the remaining at 1 h (Macaca mulatta)?
Answer: 65%

Source: ChEMBL document CHEMBL1151530, “Characterization of the in vitro oxidative metabolites of the COX-2 selective inhibitor L-766,112” (Bioorg Med Chem Lett, 1997)
